In US20040029953A1, “Use of neuropeptide-y antagonists in treatment of alcoholism” (priority 2000, published 2004):
“Also recorded” adds a separate entry of the source.

Columns and labels:
[1] = tested on: Long-Evans rats; experiment: Ethanol (10% v/v) vs. water self-administration after infusion in the PVN, sucrose-faded rats with long-term ethanol history; type: in vivo, rat
Excerpt: The effectiveness of known NPY receptor antagonists and NPY Y1-selective or Y5selective receptor antagonists in reducing craving for alcohol and reducing self-administration of alcohol can be tested in experimental animal models. Briefly, Long-Evans rats are conditioned to the laboratory environment and trained to self-administer concurrent ethanol (10% v/v) vs. water using a sucrose-fading procedure (H. H. Samson, Alcohol Clin. Exp. Res., 1986, 10:436442) as described by Hodge et al. (Alcohol, 1993, 10:191-196). Stereotaxic surgery is performed to implant injector guide cannulae aimed at the PVN. Microinjections of test compounds are given, with and without concomitant injection of NPY, into the PVN of the conditioned rats, which are then immediately given the opportunity to self-administer either water or ethanol (10% v/v). The volume of ethanol and water consumed are measured. Ethanol intake is converted from milliliters consumed to gram/kilogram body weight. Relative ethanol intake (preference) is calculated as […] of ethanol consumed divided by total fluid intake (ethanol+water […]). Drug dose effects are analyzed by one-way repeated measures analysis of variance (ANOVA). Post-hoc comparisons between drug doses and vehicle control are conducted using a paired t-test or Dunnett's t-test where appropriate (SigmaStat, Jandel, San Rafael, Calif.).
Animals. Thirty-six male Long-Evans rats (Harlan, Indianapolis, Ind.) were housed individually in Plexiglas cages. Access to water was restricted during the first day of behavioral training, but was continuously available for the remainder of the experiment. Food was always available in the home cage. In experimental chambers, ethanol (10% v/v) and water were available concurrently during daily (M-F) sessions. The animal colony room was maintained on a 12L:12D cycle with the lights on at 06:30. Experimental sessions were run during the light portion of the cycle. All experimental procedures were conducted under institutional and NIH guidelines.
Apparatus. Experimental sessions were conducted in Plexiglas chambers (27×37×21 cm) located in sound-attenuating cubicles (MED Associates, model ENV 016M, Lafayette, Ind.). Chambers were equipped with exhaust fans that masked external noise. The right wall of each chamber contained two 50-ml drinking bottles. Drug solutions were administered bilaterally through stainless steel injectors (Plastics One, Roanoke, Va.), which were connected via plastic tubing to two 1.0 μl syringes (Hamilton, Reno, Nev.). Syringes were mounted on a micro-infusion pump (Harvard Apparatus, Model 22, Natick, Mass.) set to deliver 0.5 μl/min/syringes.
Self-administration procedures. After 2 weeks of adaptation to laboratory housing conditions, fluid access was restricted to 1-h per day (for 2 days only) and two groups of rats (n=12 per group) were trained to drink from the bottles in the experimental chambers by overnight access to sucrose (10% w/v) vs. water during one overnight session. Daily 1 hour sessions were then conducted with sucrose (10% w/v) vs. water available concurrently. The location (i.e., left or right side of the chamber) of the sucrose and water solutions was alternated daily. When sucrose and water intake patterns stabilized, the rats were trained to self-administer concurrent ethanol (10% v/v) vs. water using a sucrose-fading procedure (H. H. Samson, Alcohol Clin. Exp. Res., 1986, 10:436-442) as previously described (e.g., Hodge et al., 1993). Briefly, ethanol was gradually added to the sucrose solution and then sucrose was faded out of the solution until rats were self-administering 10% ethanol vs. water. During the 2-month sucrose-fading procedure, the location of the ethanol/sucrose solution and water were alternated daily.

[2] = tested on: Long-Evans rats; experiment: Ethanol vs. water intake after NPY infusion in the PVN, control rats with no long-term history of ethanol self-administration; type: in vivo, rat; conditions: for ETOH Intake / ETOH Preference (%) / water intake: mean±SEM
Excerpt: Since NPY has potent effects on consummatory behavior, it is possible that NPY infusions in the PVN could alter ethanol intake via mechanisms that are unrelated to experience with the pharmacological effects of ethanol. […] Experimentally naive rats were allowed one week to adapt to the laboratory. They were then implanted with bilateral guide cannulae aimed at the PVN. Experimental sessions began one week after surgery to allow for recovery. During daily 60-min sessions, rats were placed in the self-administration chambers with concurrent ethanol (10% v/v) vs. water available. Baseline levels of ethanol and water intake were measured for one week. Microinjection procedures were then conducted.
(§1) Microinjection procedure. When ethanol and water intake stabilized again, microinjections were conducted once per week. Unanesthetized rats were placed in plastic containers (15×30×15 cm deep) to reduce movement. Obturators were removed and sterile 33-gauge injectors were inserted bilaterally to a depth 1 mm beyond the end of the guide cannulae. Drug solutions were infused bilaterally in distilled water vehicle in a total volume of 1 μl (0.5 μl/side) over a 1-min period. The injectors were left in place for an additional 30-sec period to allow drug diffusion. Precise flow of the solutions was verified before and after each injection to ensure compound delivery. Self-administration sessions began immediately after microinjections. Sterile obturators were reinserted at the end of the behavioral sessions. When co-administered, D-NPY or BIBP 3226 was infused 15-min prior to NPY. Vehicle injections were also performed to control for local pressure or osmotic changes caused by infusions. During one month prior to drug testing, the animals were handled and placed in the plastic tubs to minimize the effects of procedural changes on subsequent drug effects. The data from these sessions were not used in the analysis. After completion of the microinjection protocol, the rats were sacrificed and their brains were removed for histological verification of injection sites.
Data analysis and statistics. Volume of ethanol and water consumed was measured to the nearest 0.5 milliliter at the end of each 1-h session. Ethanol intake was converted from mls consumed to g/kg body weight. Relative ethanol intake (preference) was calculated as mls of ethanol consumed divided by total fluid intake (ethanol+water mils). Drug dose effects were analyzed by one-way repeated measures analysis of variance (ANOVA). Post-hoc comparisons between drug doses and vehicle control were conducted using paired t-test or Dunnett's t-test where appropriate (SigmaStat, Jandel, San Rafael, Calif.).
Data values are presented as mean±SEM.

[3] = tested on: Long-Evans rats; experiment: Body weight, food intake and water intake in the home cage 24 hours after PVN infusion; type: in vivo, rat
Description: FIG. 2 depicts the effects of NPY or NPY+D-NPY infused in the PVN on (A) body weight, (B) food intake, and (C) water intake measured in the home cage 24 hours after infusion. Drug doses were administered in random order. Data are plotted as Mean±SEM of 11 rats.
as §1

[4] = tested on: C57BL/6J mice; experiment: Operant ethanol-reinforced lever pressing (CONC FR1 FR1, 16-h sessions) after systemic administration; type: in vivo, mouse; conditions: for alcohol-seeking behavior (lever presses for alcohol) during the peak period: 4th-5th hour of access, vs saline
Excerpt: Another animal model suitable for testing the effectiveness of the NPY antagonist uses alcohol-reinforced lever pressing behavior as described in Olive et al. Eur. J. Neurosci. 2000 Vol 12, 4131-4140. This model is particularly useful for identifying NPY antagonists that prevent or delay alcohol seeking behavior or prevent or reduce the occurence of relapse drinking in recovering alcoholics.
Male C57BL/6J mice (N=8) were housed in standard Plexiglas cages (n=4/cage) with food (Harlan, Indianapolis, Ind.) and water always available. Mice were 20 weeks of age (body weight, 28-35 g) and drug naïve at the start of all testing. During operant self-administration training, food pellets (15 g per overnight session) were placed into the operant chambers and water was available under a fixed ratio-1 (FR-1) schedule of reinforcement.
Test sessions were conducted in 8 Plexiglas operant chambers (Med Associates, Lafayette, Ind.) measuring 15.9×14×12.7 cm with stainless steel grid floors. Each chamber was housed in a sound-attenuating cubicle equipped with a house fan that provided ventilation and helped mask external noise. The left and right wall of each operant chamber was equipped with one ultra-sensitive stainless steel response lever and a liquid delivery system. Liquid solutions (ethanol or water) were maintained in 60 ml syringes mounted on a programmable pump (PH-100, Med Associates), which delivered 0.01 ml per activation into a stainless steel cup located to the left of the associated response lever. Each chamber also contained a house light (illuminated between 16:00-18:00 hr and 06:00-08:00 hr), as well as a stimulus light located above each lever (activated each time the lever was pressed). The chambers were interfaced (Med Associates) to an IBM-compatible PC, which was programmed to record all lever presses and liquid deliveries.
Mice were trained to lever press using reinforcement (10% sucrose w/v) of successive approximations. After initial behavioral shaping sessions, mice were run during 16 hr overnight (16:00-08:00 hrs) training sessions. During these training sessions, both response levers were active on a concurrent fixed ratio one (CONC FR1 FR1) schedule with 10% sucrose vs. water presented as the reinforcer. The position of each solution (left or right) was fixed for each animal but counterbalanced between animals to control for side preference. After 4 days, mice were trained to orally self-administer ethanol (10% v/v) vs. water using a sucrose substitution procedure, which we have adapted for use in the mouse (Olive et al., 2000 Eur. J. Neurosci. 12:4131-4140). Briefly, ethanol (2, 4, 8, or 10% v/v) was incrementally added to the sucrose (10% w/v) solution with 4 days at each increasing concentration. Then, sucrose (10, 5, 2% w/v) was incrementally faded out of the ethanol containing solution with 4 days at each decreasing concentration. After sucrose substitution training, all mice reliably responded on the CONC FR1 FR1 schedule of reinforcement with ethanol (10% v/v) vs. water presented as the reinforcers.

[5] = any dose of NPY tested, rats without long-term ethanol history
[6] = NPY in the PVN, 24 hours after infusion, ethanol-experienced rats
[7] = NPY, sucrose-inexperienced animals
[8] = D-NPY co-administered with NPY (10 fmol) in the PVN

## Neuropeptide Y [NPY]
[1]; NPY (10 fmol) in the PVN, BIBP 3226 group of 9 rats
  ethanol intake: significantly increased ethanol intake above control values
[1]; NPY infused in the PVN
  water intake during experimental sessions: decreased water intake in a dose-dependent manner; also recorded: significantly decreased water intake
[1]; NPY infused in the PVN, all doses, 1-hour session, vs vehicle control
  ethanol intake: increases alcohol self-administration; also recorded: significantly increased ethanol intake
[1]; NPY infused in the PVN, dose-dependent, 1-hour session
  ethanol preference: significantly increased ethanol preference
[1]; two highest doses of NPY in the PVN
  ethanol as share of fluid consumption during daily sessions: greater than 90%
[2]; NPY 10.0 fmol in the PVN
  ETOH Intake: 0.0330 ± 0.024 g/kg/h
  ETOH Preference (%): 20.0 ± 13.333%
  water intake: 0 ± 0 mL/h
[2]; NPY 100.0 fmol in the PVN
  ETOH Intake: 0.0550 ± 0.03 g/kg/h
  ETOH Preference (%): 30 ± 15.275%
  water intake: 0.3 ± 0.133 mL/h
[2]; [5]
  change in ethanol intake: no dose of NPY tested produced a change; also recorded: no effect on ethanol intake
  change in ethanol preference: no dose of NPY tested produced a change
  change in water intake: no dose of NPY tested produced a change
[3]; [6]
  body weight in the home cage: no effect
  food consumption in the home cage: no effect
[3]; NPY in the PVN, 24 hours after infusion, ethanol-experienced rats, p<0.05
  water intake in the home cage: reduced water intake in the home cage; also recorded: small but significant reductions
[3]; [7]
  body weight in the home cage: no effect
  food intake in the home cage: no effect
  water intake in the home cage: no effect

## [D-Tyr^27,36,D-Thr^32] Neuropeptide Y (27-36) [D-NPY]
[1]; D-NPY alone infused in the PVN
  ethanol intake: partial, but significant, decrease in ethanol intake
[1]; [8]
  NPY-induced decrease in water intake during sessions: completely blocked the effects of NPY on ethanol and water intake; also recorded: significantly reversed NPY-induced decreases in water intake
  NPY-induced increase in ethanol intake: completely blocked the effects of NPY on ethanol and water intake
[1]; D-NPY co-administered with NPY (10 fmol) in the PVN, P<0.09
  NPY-induced increase in ethanol preference: did not significantly alter
[3]; D-NPY alone or in combination with NPY in the PVN
  body weight in the home cage: produced no effect on body weight

## CC1(C)CC(=O)C(C2C3=C(CC(C)(C)CC3=O)Oc3ccccc32)C(=O)C1 (centres unmarked) [L 152,804, 2-(3,3-dimethyl-1-oxo-4H-1H-xanthen-9-yl)-5,5-dimethylcyclohexane-1,3-dione]
[4]; 60 mg/kg
  self-administration during the 13th hour of access: compensatory increase in self-administration
  alcohol-seeking behavior (lever presses for alcohol) during the peak period: significantly decreased alcohol-seeking behavior
[4]; 60 mg/kg, listed as LI 52,804
  alcohol-seeking behavior (lever presses for alcohol) during the peak period: blocked this peak in alcohol-seeking behavior
[4]; dose-dependent, vs no injection and saline controls
  latency to the first response (delay to first alcohol lever press): significantly increased the latency to the first response; also recorded: dose dependently delayed the onset of responding
[4]; highest dose
  response latency, statistical significance: did not achieve significance
[4]; systemic, 10, 30 and 60 mg/kg
  water intake during 16-h sessions: no effect on water intake
[4]; the two low doses (10, 30 mg/kg)
  ethanol self-administration: did not significantly alter ethanol self-administration
